US5177251A, “Halogenated tetraenyl prostaglandin derivatives” (G. D. Searle & Co., priority 1991, dated 1993)

What was measured:
[1] = system: diarrhea; experiment: Diarrheal assay in rats; assay type: in vivo, male Charles River rats; conditions: intragastric, up to 8 hours
Procedure: (§1) Diarrhea is an undesirable side effect commonly associated with antisecretory and cytoprotective prostaglandins. […] Groups of 6 adult male Charles River rats weight rang®180 to 200 g, are fasted for 24 hours prior to administering the test substance. The prostaglandin to be tested is administered intragastrically in iso-osmotic phosphate buffer at a volume of 10 ml/kg at doses ranging from 100 to 3000 μg/kg. Control animals receive only the vehicle. The rats are placed in individual wire mesh cages and t he trays lined with brown paper. Diarrhea is assessed at hourly intervals on all or none basis for up to 8 hours after administration of the prostaglandin. Diarrhea is defined as any loose or watery stool. ED50 values are assessed for each hourly diarrheagenic response.

[2] = Acid stability in acetic acid:THF:water, thin layer chromatography; assay type: physicochemical; conditions: 3:1:1 acetic acid:THF:water, room temperature, TLC, all time points
Procedure: Comparison of Acid Stability of Compound of Example 1 with its parent non-fluorinated analog.
Each compound (4 mg) was separately dissolved in 0.4 ml of a 3:1:1 solution of acetic acid:THF:water and kept at room temperature. Relative decomposition was assessed by thin layer chromatography analysis of aliquots withdrawn at 30 minutes, 1,2, 4 and 6 hours.

[3] = system: ethanol-induced gastric lesions; experiment: Ethanol induced gastric lesion assay in rats (cytoprotective); assay type: in vivo, male Charles River rats; conditions: rat, oral, 30 minutes before absolute ethanol; read-out: Ethanol-Induced Gastric Lesion *MED (Minimal effective dose)
Procedure: In the assay, 0.005-0.5 mg/kg is orally administered to adult 180-220 gram male Charles River rats which have been deprived of food for 24 hours. Thirty minutes later, 1.0 ml of absolute ethanol is administered intragastrically. The rats are sacrificed 60 minutes after alcohol administration and the gastric mucosa are visually examined for the presence of lesions. The number and severity of lesions are scored. A compound is judged active at the concentration evaluated if it provides a statistically significant reduction in the number and/or severity of lesions compared to the control group.

[4] = system: gastric acid secretion; experiment: Gastric acid secretion assay in dogs (Pavlov gastric pouch, meal-stimulated); assay type: in vivo, dog (adult female beagles); conditions: into gastric pouch; for ED50: Canis lupus familiaris, dog, total acid output over 4 hours after feeding, read-out: Gastric Antisecretory (Dog) ED50; for Gastric Antisecretory (Dog), % inhibition at 0.3: at 0.3 (column unit μg/kg)
Source text: The standard test used to detect gastric antisecretory activity is described as follows.
Adult female beagles, 6-11 kg body weight, were surgically prepared with innervated (Pavlov) gastric pouches that were drained by Thomas-type gastric cannulae. Following surgical recovery, each dog was trained to stand quietly in a dog restraining sling and was conscious for all studies. Experiments began at least 3 weeks after surgery, and no dog was used more than once per week.
Dogs were food-deprived with access to water for 24 hours prior to experiments. Following a 30 minute basal collection period, the prostaglandins or vehicle were administered into the gastric pouch in a 2-3 ml volume. Thirty minutes later the gastric pouch was emptied and gastric secretion was stimulated by feeding 10-12 oz of dog food (Fromm All Beef, Federal Foods Inc., Thiensville, Wis.). Gastric juice samples were collected from the pouch by gravity drainage over a 4 hour period at 30 minute intervals. The volume of secretion was measured (ml/30 min), and the acidity (mequiv/L) was determined by electrometric titration to pH 7.0 with 0.1 N NaOH. These two parameters were multiplied to obtain the total acid output (mequiv/30 minutes) for each collection period.
Percent reduction of total acid output from control was calculated over each 4 hour experiment for doses of prostaglandin. ED50 values and 95% confidence limits were determined from inhibition of secretion curves.

[5] = Diarrheal assay in rats; assay type: in vivo, male Charles River rats; conditions: in vivo, po; rat, intragastric, up to 8 hours; read-out: Diarrhea Rat ED50
Procedure: as §1

Row | Diarrhea Rat ED50 [1] [μ/kg] | SMILES | decomposition at 30 minutes, 1, 2, 4 and 6 hours [2] | minimal effective dose [3] [µg/kg] | ED50 [4] [µg/kg] | Gastric Antisecretory (Dog), % inhibition at 0.3 [4] [%] | TD50 at 8 h [5] [µg/kg]
1 | > 3160 | COC(=O)CC/C=C\CC[C@H]1C(=O)C[C@@H](O)[C@@H]1/C=C/C[C@@](O)(/C=C/C1=CCCC1)CF (relative stereo) [Example 1, (±)-methyl 7-[2β-[6-(1-cyclopenten-1-yl)-4R-(fluoromethyl)-4-hydroxy-1E,5E-hexadienyl]-3α-hydroxy-5-oxo-lo-cyclopentyl]-4Z-heptenoate] | virtually no decomposition products were observed | 1 |  |  | 
2 | > 3160 | COC(=O)CC/C=C\CC[C@H]1C(=O)C[C@@H](O)[C@@H]1/C=C/C[C@@](O)(/C=C/C1=CCCC1)C(F)F (relative stereo) [Example 3, (±)-methyl 7-[2β-[6-(1-cyclopenten-1-yl)-4R-(difluoromethyl)-4-hydroxy-1E,5E-hexadienyl]-3α-hydroxy-5-oxo-1α-cyclopentyl]-4Z-heptenoate] |  | 10 | > 1 |  | 
3 | > 3160 | COC(=O)CC/C=C\CC[C@H]1C(=O)C[C@@H](O)[C@@H]1/C=C/C[C@@](O)(/C=C/C1=CCCC1)C(F)(F)F (relative stereo) [Example 4, (±)-methyl 7-[2β-[6-(1-cyclopenten-1yl)-4R-hydroxy-4-(trifluoromethyl)-1E,5E-hexadienyl]-3α-hydroxy-5-oxo-1α-cyclopentyl]-4Z-heptenoate] |  | 100 | > 0.1 |  | 
4 |  | COC(=O)CC/C=C\CC[C@H]1C(=O)C[C@@H](O)[C@@H]1/C=C/C[C@@](O)(/C=C/C1=CCCC1)CCl (relative stereo) [Example 5, (±)-methyl 7-[2β-[4R-(chloromethyl)-6-(1-cyclopenten-1-yl)-4-hydroxy-1E, 5E-hexadienyl]-3α-hydroxy-5-oxo-1α-cyclopentyl]-4Z-heptenoate] |  | 10 | > 0.1 |  | 
5 |  | COC(=O)CC/C=C\CC[C@H]1C(=O)C[C@@H](O)[C@@H]1/C=C/C[C@@](C)(O)/C=C/C=C/C(F)(F)F (relative stereo) [Example 6, (±)-methyl 11α,16R-dihydroxy-16-methyl-9-oxo-20-(trifluoromethyl) prosta-4Z,13E,17E,19E-tetraen-1-oate] |  |  |  | 84 | 
6 |  | COC(=O)CC/C=C\CC[C@H]1C(=O)C[C@@H](O)[C@@H]1/C=C/C[C@@](C)(O)/C=C/C=C(\C)C(F)(F)F (relative stereo) [Example 7, (±)-methyl 11α,16R-dihydroxy-16,20-dimethyl-9-oxo-20-(trifluoromethyl) prosta-4Z,13E,17E, 19E-tetraen-1-oate] |  | 50 |  | 74 | 
7 |  | COC(=O)CC/C=C\CC[C@H]1C(=O)C[C@@H](O)[C@@H]1/C=C/C[C@@](C)(O)/C=C/C(F)=C(C)C (relative stereo) [Example 8, (±)-methyl 19-fluoro-11α,16R-dihydroxy-16,20,20-trimethyl-9-oxoprosta-4Z,13E,17E, 19-tetraen-1-oate] |  | 1 |  |  | 
8 |  | COC(=O)CC/C=C\CC[C@H]1C(=O)C[C@@H](O)[C@@H]1/C=C/C[C@@](C)(O)/C=C/C=C(Cl)Cl (relative stereo) [Example 9, (±)-methyl 20,20-dichloro-11α,16R-dihydroxy-16-methyl-9-oxoprosta-4Z,13E,17E,19-tetraen-1-oate] |  | 2.5 |  |  | 1000
9 | > 3160 | COC(=O)CC/C=C\CC[C@H]1C(=O)C[C@@H](O)[C@@H]1/C=C/C[C@@](O)(/C=C/C=C(C)C)CF (relative stereo) [Example 10, methyl 16R-(fluoromethyl)-11α,16-dihydroxy-20,20-dimethyl-9-oxoprosta-4Z,13E,17E,19-tetraen-1-oate] |  | 25 | < 0.3 |  | 
10 | > 3160 | COC(=O)CC/C=C\CC[C@H]1C(=O)C[C@@H](O)[C@@H]1/C=C/C[C@@](O)(/C=C/C1=CCCC1)CF [Example 2, methyl 7-[2β-[6-(1-cyclopenten-1-yl)-4R-(fluoromethyl)-4-hydroxy-1E,5E-hexadienyl]-3α-hydroxy-5-oxo-1R,1α-cyclopentyl]-4Z-heptenoate] |  | 1 |  |  | 
